{
  "source": "patent US6447988B2",
  "about": "“In vitro assay method for the study of brain aging” (The Regents of the University of California, priority 1997, dated 2002)",
  "key": {"hippocampal slices [1]": {"test_system": "hippocampal slices", "conditions": "cited from earlier work"}, "hippocampal slices [2]": {"test_system": "hippocampal slices", "experiment": "Western blot analyses of cultured hippocampal slices exposed to ZPAD", "assay_type": "cell-based, Sprague-Dawley rats", "conditions": "for replication of ZPAD-induced alterations by more selective inhibitors of cathepsin L: cultured brain slices", "protocol": "(§1) Hippocampal slices were prepared from 10-13 day-old Sprague-Dawley rats and maintained in culture using the method of Stoppini et al. (1991, supra). Briefly, the hippocampi were dissected in ice-cold artificial cerebrospinal fluid (124 mM NaCl, 10 mM glucose, 3 mM KCl, 1.25 mM KH2PO4, 4 mM MgSO4, 2 mM CaCl2, 26 mM NaHCO3, 2 mM ascorbate, 0.1 mM ascorbate, pH=7.3), and 400 μm thick slices were produced on a McIlwain tissue chopper. One ml of culture media (50% Basal Medium Eagle, 25% Earle's Balance Salt Solution, 25% horse serum), supplemented with 136 mM NaCl, 2 mM CaCl2, 2.5 mM MgSO4, 5 mM NaHCO3 3 mM glutamine, 40 mM glucose, 0.5 mM ascorbic acid, 20 mM HEPES (pH=7.3), 1 mg/L insulin, 5 U/ml penicillin and 5 mg/L streptomycin, was added to each well of a six well culture plate, and inserts containing a polystyrene membrane (pore size: […]) were placed in each well to support the hippocampal sections. Slices were incubated in a humidified, 37° C. atmosphere containing 5% CO2 and maintained in culture for at least nine days before experiments were initiated. Media was replenished on the first day after explantation, and every 2-3 days during the initial culture period. A subset of the hippocampal slices in the six-well culture dishes was exposed to media (as described above, with heat-treated horse serum) containing 30-50 μM ZPAD (BACHEM Bioscience, Inc., Torrance, Calif.). Tissue was harvested after three to six days of continuous ZPAD exposure."}, "cathepsin D mRNA": {"test_system": "cathepsin D mRNA", "experiment": "In situ hybridization for cathepsin D mRNA in cultured hippocampal slices", "assay_type": "cell-based, Sprague-Dawley rats", "conditions": "four days of exposure to 45 μM ZPAD", "protocol": "as §1, with “Tissue was harvested after three to six days of continuous ZPAD exposure.” left out"}, "hippocampal slices [3]": {"test_system": "hippocampal slices", "experiment": "Electron microscopy of cultured hippocampal slices treated with ZPAD", "assay_type": "cell-based, Sprague-Dawley rats", "protocol": "as §1\nFurthermore, lysosomes in CA1 and CA3 pyramidal cells were not restricted to the soma but instead were located throughout dendritic processes. Clusters of lysosomes were commonly found within bulging segments of proximal dendrites that were notable for an absence of nicrotubules and neurofilaments. […] These appendages are similar in form and content to structures previously referred to as “meganeurites.” While pyknotic nuclei were sometimes encountered, most of the cells in slices exposed to ZPAD for six days appeared relatively normal. […]"}, "[4]": {"conditions": "chloroquine treatment of long-term hippocampal slices"}, "[5]": {"conditions": "45 μM ZPAD for six days, electron microscope"}},
  "data": [
    {"compound": "CCN(CC)CCCC(C)Nc1ccnc2cc(Cl)ccc12", "note": "(centres unmarked) [chloroquine]", "values": [
      {"measurement": "carboxy-terminal fragments of the amyloid precursor protein (APP)", "setting": "hippocampal slices [1]; [4]", "result": "appearance"},
      {"measurement": "synaptophysin", "setting": "hippocampal slices [1]; [4]", "result": "loss"}
    ]},
    {"compound": "CC(C)C[C@H](NC(=O)[C@@H](NC(=O)N[C@@H](Cc1ccccc1)C(=O)O)[C@@H]1CCN=C(N)N1)C(=O)N[C@H](C=O)Cc1ccccc1", "note": "[chymostatin]", "values": [
      {"measurement": "replication of ZPAD-induced alterations by more selective inhibitors of cathepsin L", "setting": "hippocampal slices [2]", "result": "replicated several of the ZPAD-induced alterations"}
    ]},
    {"compound": "C=C(C)[C@H]1CN[C@H](C(=O)O)[C@H]1CC(=O)O", "note": "[kainic acid]", "values": [
      {"measurement": "rate of build-up of β-amyloid-containing fragments and loss of synaptophysin", "setting": "hippocampal slices [1]; pre-treatment with kainic acid before chloroquine", "result": "more rapid"}
    ]},
    {"compound": "N-CBZ-L-phenylalanyl-L-alanine-diazomethylketone [ZPAD]", "values": [
      {"measurement": "levels of 25-30 kDa fragments of amyloid precursor protein", "setting": "hippocampal slices [2]; 45 μM ZPAD for six days, Western blot", "result": "increased levels"},
      {"measurement": "levels of active cathepsin D protein in lysosomal and non-lysosomal (cytosolic) compartments", "setting": "hippocampal slices [2]; Western blots of subcellular fractions of ZPAD-exposed slices", "result": "markedly elevated levels"},
      {"measurement": "increase in the protein level of cathepsin D", "setting": "hippocampal slices [2]; slices exposed to 30-50 μM ZPAD for three to six days, Western blot, p<0.001, n=8", "result": 3, "unit": "fold"},
      {"measurement": "degradation of cytoskeletal proteins", "setting": "hippocampal slices [2]; slices exposed to 30-50 μM ZPAD for three to six days, Western blot, tubulin, spectrin, microtubule-associated protein-2, tau", "result": "proteolytic degradation of four cytoskeletal proteins"},
      {"measurement": "increase in the level of cathepsin D mRNA, CA3 neurons", "setting": "cathepsin D mRNA; CA3 neurons", "result": 56, "unit": "%"},
      {"measurement": "increase in the level of cathepsin D mRNA, glial cells of subfield CA1 stratum radiatum", "setting": "cathepsin D mRNA; p<0.01", "result": 71, "unit": "%"},
      {"measurement": "meganeurite formation on CA1 neurons", "setting": "hippocampal slices [3]; [5]", "result": "a small percentage of CA1 neurons"},
      {"measurement": "number of lysosomes in the perikarya of neurons and glia", "setting": "hippocampal slices [3]; [5]", "result": "dramatic increase"},
      {"measurement": "meganeurite-containing CA1 pyramidal cells after washout", "setting": "hippocampal slices [3]; ZPAD for six days, then seven additional days in culture without ZPAD", "result": "more commonly found"}
    ]},
    {"compound": "N-CBZ-L-phenylalanyl-L-phenylalanine-diazomethylketone", "values": [
      {"measurement": "replication of ZPAD-induced alterations by more selective inhibitors of cathepsin L", "setting": "hippocampal slices [2]", "result": "replicated several of the ZPAD-induced alterations"}
    ]}
  ]
}
